In US9718806B2, “Quinazoline inhibitors of activating mutant forms of epidermal growth factor receptor” (AstraZeneca AB, priority 2013, dated 2017):
Where a name gives a salt, the structure may show the parent alone.

Legend:
endogenous p-EGFR = experiment: Assay 1: cellular phosphorylation assay, overall statement; assay type: cell-based, human; details: Assay 1, statement on the table
Description: Assay 1: Cellular Phosphorylation Assay
The human lung cell line NCI-H3255 (L858R) was obtained from the American Type Culture Collection. The NCI-H3255 cells were maintained in BEBM media (Lonza; CC-3171), containing 10% fetal bovine serum (FBS) (Gibco; 10099-141), supplemented with BEGM kit (Lonza; CC-4175). The human lung cell line PC-9 (Exon 19 deletion EGFR) was obtained from the American Type Culture Collection. PC-9 cells were maintained in RPMI 1640 (Gibco; 22400-089), containing 10% fetal bovine serum. The human lung cell line NCI-H838 (EGFR wild type) was obtained from the American Type Culture Collection. NCI-H838 cells were maintained in RPMI 1640 (Gibco; 22400-089), containing 10% fetal bovine serum.
All cells were grown in a humidified incubator at 37° C. with 5% CO2. Assays to measure cellular phosphorylation of endogenous p-EGFR in cell lysates were carried out according to the protocol described in the PathScan® Phospho-EGF Receptor (Tyr1068) Sandwich ELISA Kit (Cell Signalling kit catalogue number #7240).
100 μL of cells were seeded (32000 cells/well) in RPMI 1640+1% fetal bovine serum in Corning Costar, 96 well cell culture plates and incubated at 37° C. with 5% CO2 overnight. Cells were acoustically dosed using a […], with compounds serially diluted in 100% DMSO. Cell plates were incubated for a further 4 h after the compounds were added, (for NCI-H838: rhEGF (R&D catalogue number#236-EG) was added to cell plate with final concentration 100 ng/ml rhEGF to stimulate 5 minutes), then following aspiration of medium, 110 μL IP lysis buffer (IP lysis buffer: add 1:100 phosphatase inhibitor cocktail 2&3 (Sigma catalogue number P5726&P0044), 1:100 protease inhibitor cocktail (Sigma catalogue number P8340) to Pierce IP lysis buffer (Thermo catalogue number #87788)) was added to each well. The plates were put at 4° C. with rotation 300 rpm for 0.5-1 hour. […] 100 μl stop solution (Cell Signalling kit catalogue number#7240) was added to the plates and absorbance read at 450 nm within 30 minutes on SpectraMax M5e plate reader. […]

[1] = Assay 2: brain blood barrier penetration assay (short oral absorption model plus in vitro blood and brain binding); assay type: in vivo; details: rat, male Han Wistar rats, oral 2 mg/kg, Kp,uu=AUC (brain)/AUC (blood)×(fu,brain/fu.blood)
Method: Assay 2: Brain Blood Barrier Penetration Assay
It is believed that Kp,uu, the relationship between concentrations of unbound drug in brain and in blood, is the key to prediction of CNS action and should be the main parameter measured and optimized for in drug discovery (Di L et al., Journal of Medicinal Chemistry [2013], 56: 2-12).
In vitro blood and brain binding assay was carried out on a HT-Dialysis plate (Gales Ferry, Conn.) with semi-permeable membrane. Diluted blood (1:1 with DPBS pH7.4) and brain homogenate (1:3 with DPBS pH7.4) were spiked with 5 μM test compound (in triplicate) and dialyzed against equal volume of 150 μL 100 mM PBS buffer (pH7.4) at 37° C. for 4 hours in a slowly rotated plate. At the end of incubation, a 50 μL aliquot from the receiver side and a 5 μL from the donor chamber were taken. The 5 μL sample was further diluted with 45 μL of blank blood or brain homogenate. Paired samples were matrix-matched with either buffer or blank blood/brain homogenate and mixed for 2 min, and then precipitated with 150 μL cold acetonitrile with 100 ng/mL tolbutamide as internal standard. After centrifuging at 4000 rpm for 20 min, supernatant was diluted with 0.1% formic acid aqueous solution and analyzed for LC/MS/MS (API 4000, Applied Biosystems, Foster City). […]. D is dilution factor.
A Short oral absorption (SOA) model is an in-vivo screening model to identify brain penetration of a compound. […]
Standards were prepared by spiking blank blood, brain homogenate and artificial CSF covering 0.2 to 500 ng/mL. […] After 2 min vortex and 5 min centrifugation at 14,000 rpm, supernatant was analyzed by LC/MS/MS (API 4000, Applied Biosystems, Foster City). […] For brain and CSF samples, one standard curve was analyzed along with test samples.
Total brain levels, expressed as brain/blood ratio (Kp) were measured by AUCbrain/AUCblood in rodents after oral administration. Free fraction of test compound in biological matrix was determined by in vitro blood and brain binding assay. Kp,uu was calculated by the following equation: Kp,uu=AUC (brain)/AUC (blood)×(fu,brain/fu.blood).

SMILES	potency compared with gefitinib and erlotinib (endogenous p-EGFR)	Kp uu ([1]; in vivo)	Kp uu ([1]; brain / blood (unbound))
COc1cc2ncnc(Nc3cccc(Cl)c3F)c2cc1OC(=O)N1CCN(C)C[C@H]1C [Example 1, 4-[(3-Chloro-2-fluorophenyl)amino]-7-methoxyquinazolin-6-yl (2R)-2,4-dimethylpiperazine-1-carboxylate]	comparable potency to gefitinib and erlotinib	1.3	
COc1cc2ncnc(Nc3cccc(Cl)c3F)c2cc1OC(=O)N1CCN(C)C[C@H]1C [Example 2, 4-[(3-Chloro-2-fluorophenyl)amino]-7-methoxyquinazolin-6-yl (2R)-2,4-dimethylpiperazine-1-carboxylate hydrochloride]	comparable potency to gefitinib and erlotinib		
COc1cc2ncnc(Nc3cccc(Cl)c3F)c2cc1OC(=O)N1CCN(C)C[C@@H]1C [Example 3, 4-[(3-Chloro-2-fluorophenyl)amino]-7-methoxyquinazolin-6-yl (2S)-2,4-dimethylpiperazine-1-carboxylate]	comparable potency to gefitinib and erlotinib		1.6
CNC(=O)CN1CCC(Oc2cc3c(Nc4cccc(Cl)c4F)ncnc3cc2OC)CC1 [sapitinib, reference compound]			0.12
